Data: patent US20240245703A1, “TOPICAL APPLICATION OF AGENTS TO REDUCE SUN SENSITIVITY AND IMPROVE TOPICAL PHOTODYNAMIC THERAPY” (Wright State University, priority 2021, published 2024)

Tested on: HaCaT keratinocytes
Test: PDT (5-ALA + blue light) MVP release in HaCaT keratinocytes
Format: cell-based, human
Conditions: HaCaT, 1 mM 5-ALA 4 hours then 2.5-20 J/cm^2 blue light, 4 h
Method: PDT results in acute cellular destruction and inflammation and photosensitivity, as well as delayed immunosuppression. […] Thus, it was of further interest whether experimental PDT of HaCaT keratinocytes generated MVP in vitro. To that end, HaCaT cells were pretreated with 5-ALA alone, or blue light alone, or a 4 hour incubation of 5-ALA in the dark followed by various fluences of blue light, and MVP were measured in the supernatants at 4 hours post blue light. 100 nM CPAF and TPA were used as positive controls for MVP release.
For the data shown in FIG. 14, HaCaT keratinocytes were treated with sham (no treatment), 0.1% ethanol vehicle control (VEH), 100 nM TPA, 100 nM CPAF, 1 mM 5-ALA for 4 hours, or 5-ALA followed by various fluences (2.5-20 J/cm^2) of blue light or blue light alone. Levels of MVPs released into supernatants were measured at 4 hours. […] For the data shown in FIG. 15, human skin explants were treated with sham, 100 μL vehicle (90% ethanol+10% DMSO) (VEH), 1 μM TPA, 1 µM CPAF, 1 mM 5-ALA for 4 hours, blue light or 5-ALA+blue light at 20 J/cm^2. After four hours, duplicate 6-mm punch biopsies were obtained, weighed, and MVPs were measured. The data are the mean±SE from 3-4 separate experiments conducted in duplicate. * Denotes statistically significant (P <0.05) changes from sham values.
Supernatants were collected at 4 hours and MVP measured. The data are the mean±SE MVP fold change from sham-treated values. For the data shown in FIG. 17, human skin explants were treated as in FIG. 15, with the exception that in some experiments 100 μL of 5 mM IMIP was added post-PDT. MVP were measured in duplicate 6-mm punch biopsies obtained 4 hours post-treatment.

In the case of `NCC(=O)CCC(=O)O` [Compound 5-ALA, 5-aminolevulinic acid], the “MVP generation, 5-ALA along with blue light (PDT)” value is reported as “resulted in high levels of MVP generation in a dosage-dependent manner”.

Same assay, conditions: HaCaT, 1 mM 5-ALA 4 hours without blue light

With `NCC(=O)CCC(=O)O` [Compound 5-ALA, 5-aminolevulinic acid] the “MVP formation, 5-ALA alone” value was “did not generate appreciate MVP formation”.

Tested on: aSMase
Test: not given
Conditions: 10 micromolar, PC12 cells, incubation time 0.5 h; % of corresponding control values; cited from earlier work

Going from `CNCCCC12CCC(c3ccccc31)c1ccccc12` [Maprotiline] to `CNCCCC1c2ccccc2C=Cc2ccccc21` [Protriptyline], the “Residual ASM Activity” value falls from 13.5% to 12.7%.

First: CN(C)CCC=C1c2ccccc2C=Cc2ccccc21 [Cyclobenzaprine]
Second: CNCCC=C1c2ccccc2CCc2ccccc21 [Nortriptyline]
The “Residual ASM Activity” value of the first is higher: 26.2% for the first, 13.3% for the second.

Compared with `CN[C@H]1CC[C@@H](c2ccc(Cl)c(Cl)c2)c2ccccc21` [Sertraline], `Clc1ccccc1CNCC1CCC(CNCc2ccccc2Cl)CC1` (stereo not drawn) [AY9944, N-[(2-chlorophenyl)methyl]-1-[4-[[(2-chlorophenyl)methylamino]methyl]cyclohexyl]methanamine] is higher in “Residual ASM Activity” value: 12.3% for the first, 22.1% for the second.

Going from `C1CCC(C(CC2CCCCN2)C2CCCCC2)CC1` (stereo not drawn) [Perhexiline] to `Fc1ccc([C@@H]2CCNC[C@H]2COc2ccc3c(c2)OCO3)cc1` [Paroxetine], the “Residual ASM Activity” value rises from 8.5% to 31.7%.

Going from `OCCN1CCN(CCCN2c3ccccc3Sc3ccc(Cl)cc32)CC1` [Perphenazine] to `OCCN1CCN(CC/C=C2/c3ccccc3Sc3ccc(C(F)(F)F)cc32)CC1` [Flupenthixol], the “Residual ASM Activity” value falls from 20.1% to 18.2%.

Compared with `CC(CN(C)C)CN1c2ccccc2CCc2ccccc21` (stereo not drawn) [Trimipramine], `CNCCCN1c2ccccc2CCc2ccccc21` [Desipramine] is higher in “Residual ASM Activity” value: 13.8% for the first, 15.6% for the second.

Compared with `CNCCC(Oc1ccc(C(F)(F)F)cc1)c1ccccc1` (stereo not drawn) [Fluoxetine], `NCCC(Oc1ccc(C(F)(F)F)cc1)c1ccccc1` (stereo not drawn) [Norfluoxetine] is higher in “Residual ASM Activity” value: 13.0% for the first, 22.5% for the second.

Compared with `CN(C)CCCN1c2ccccc2Sc2ccc(C(F)(F)F)cc21` [Triflupromazine], `CN(C)CCCN1c2ccccc2Sc2ccccc21` [Promazine] is higher in “Residual ASM Activity” value: 29.5% for the first, 33.6% for the second.

Going from `CC(C)(C)c1ccc(C(O)CCCN2CCC(C(O)(c3ccccc3)c3ccccc3)CC2)cc1` (stereo not drawn) [Terfenadine] to `CC(NCCC(c1ccccc1)c1ccccc1)c1ccccc1` (stereo not drawn) [Fendiline], the “Residual ASM Activity” value rises from 21.8% to 25.2%.

Going from `CCN(CC)CCOc1ccc(C(=C(Cl)c2ccccc2)c2ccccc2)cc1` [Clomiphene] to `CCN(CC)C(C)CN1c2ccccc2Sc2ccccc21` (stereo not drawn) [Profenamine], the “Residual ASM Activity” value rises from 13.0% to 29.7%.

First: CN(C)CCCN1c2ccccc2CCc2ccc(Cl)cc21 [Clomipramine]
Second: CC(CN1c2ccccc2Sc2ccccc21)N(C)C (stereo not drawn) [Promethazin]
The “Residual ASM Activity” value of the first is lower: 21.8% for the first, 32.2% for the second.

For `CN1[C@@H]2CC[C@H]1C[C@@H](OC(c1ccccc1)c1ccccc1)C2` [Benztropine], the “Residual ASM Activity” value is given as 12.7%.

Same assay, conditions: 10 micromolar, PC12 cells, incubation time 6 h; % of corresponding control values; cited from earlier work

First: OC1(c2ccc(Cl)c(C(F)(F)F)c2)CCN(CCCC(c2ccc(F)cc2)c2ccc(F)cc2)CC1 [Penfluridol]
Second: COc1ccc(CCN2CCC(Nc3nc4ccccc4n3Cc3ccc(F)cc3)CC2)cc1 [Astemizole]
The “Residual ASM Activity” value of the first is higher: 22.0% for the first, 14.3% for the second.

First: CSc1ccc2c(c1)N(CCC1CCCCN1C)c1ccccc1S2 (stereo not drawn) [Thioridazin]
Second: CN1CCN(CCCN2c3ccccc3Sc3ccc(C(F)(F)F)cc32)CC1 [Trifluoperazine]
The “Residual ASM Activity” value of the first is higher: 10.4% for the first, 8.3% for the second.

Going from `CCN(CC)CCCN(c1ccccc1)C1Cc2ccccc2C1` [Aprindine] to `CC/C(=C(\c1ccccc1)c1ccc(OCCN(C)C)cc1)c1ccccc1` [Tamoxifen], the “Residual ASM Activity” value falls from 27.5% to 4.1%.

Going from `COCC(=O)O[C@]1(CCN(C)CCCc2nc3ccccc3[nH]2)CCc2cc(F)ccc2[C@@H]1C(C)C` [Mibefradil] to `c1cc(CN2CCCCC2)cc(OCCCNc2nc3ccccc3s2)c1` [Zolantidine_(SKB41), Zolantidine], the “Residual ASM Activity” value rises from 20.8% to 21.6%.

Same assay, conditions: 10 micromolar, PC12 cells, incubation time 24 h; % of corresponding control values; cited from earlier work

Compared with `CN(C)C(=O)C(CCN1CCC(O)(c2ccc(Cl)cc2)CC1)(c1ccccc1)c1ccccc1` [Loperamide], `CN(CCCN1c2ccccc2CCc2ccccc21)CC(=O)c1ccc(Cl)cc1` [Lofepramine] is lower in “Residual ASM Activity” value: 24.4% for the first, 19.2% for the second.

First: CCN(CCCc1ccccc1)CCCc1ccccc1 [Alverine]
Second: CC(C)COCC(CN(Cc1ccccc1)c1ccccc1)N1CCCC1 (stereo not drawn) [Bepridil]
The “Residual ASM Activity” value of the first is lower: 21.7% for the first, 27.1% for the second.

Compared with `CCN(CC)CCOC(=O)C(c1ccccc1)C1CCCCC1` (stereo not drawn) [Drofenine], `CCN(CC)CCNC(C(=O)OCCC(C)C)c1ccccc1` (stereo not drawn) [Camylofin] is higher in “Residual ASM Activity” value: 20.8% for the first, 21.7% for the second.

First: OC(CCN1CCCCC1)(c1ccccc1)C1CC2C=CC1C2 (stereo not drawn) [Biperidene]
Second: Clc1ccc(C(OCCN2CCCCC2)c2ccccc2)cc1 (stereo not drawn) [Cloperastine]
The “Residual ASM Activity” value of the first is lower: 26.2% for the first, 26.7% for the second.

Compared with `C[C@H]1[C@H]2CC[C@H]3[C@@H]4CC=C5C[C@@H](N(C)C)CC[C@]5(C)[C@H]4CC[C@]23CN1C` [Conessine], `C[C@H]1CC[C@]2(NC1)O[C@H]1C[C@H]3[C@@H]4CC[C@H]5C[C@@H](O)CC[C@]5(C)[C@H]4CC[C@]3(C)[C@H]1[C@@H]2C` [Tomatidine] is lower in “Residual ASM Activity” value: 20.8% for the first, 15.8% for the second.

Compared with `COc1ccccc1OCCNCC(O)COc1cccc2[nH]c3ccccc3c12` (stereo not drawn) [Carvedilol], `CCN(CCCCOC(=O)c1ccc(OC)c(OC)c1)C(C)Cc1ccc(OC)cc1` (stereo not drawn) [Mebeverine] is higher in “Residual ASM Activity” value: 22.4% for the first, 31.8% for the second.

Compared with `CC[C@H]1CN2CCc3cc(OC)c(OC)cc3[C@@H]2C[C@@H]1C[C@H]1NCCc2cc(OC)c(OC)cc21` [Emetine], `CN1CCC(=C2c3ccccc3Sc3ccccc32)CC1` [Pimethixene] is higher in “Residual ASM Activity” value: 0.4% for the first, 16.5% for the second.

In the case of `CCCCc1oc2ccccc2c1C(=O)c1cc(I)c(OCCN(CC)CC)c(I)c1` [Amiodarone], the “Residual ASM Activity” value is given as 14.5%.

Same assay, conditions: 10 micromolar, PC12 cells, incubation time 48 h; % of corresponding control values; cited from earlier work

First: CC(C)/N=c1\cc2n(-c3ccc(Cl)cc3)c3ccccc3nc-2cc1Nc1ccc(Cl)cc1 [Clofazimine]
Second: Fc1ccc(C(c2ccc(F)cc2)N2CCN(C/C=C/c3ccccc3)CC2)cc1 [Flunarizine]
The “Residual ASM Activity” value of the first is lower: 23.7% for the first, 32.7% for the second.

For `CN(Cc1cc(Br)cc(Br)c1N)C1CCCCC1` [Bromhexine], the “Residual ASM Activity” value is given as 102.8%.

Same assay, conditions: from Kornhuber et al. 2008; cited from earlier work

In the case of `O=C(CCCN1CCC(O)(c2ccc(Cl)cc2)CC1)c1ccc(F)cc1` [haloperidol], the “residual aSMase activity after treatment” value is listed as 86.1%.

Tested on: not given
Test: not given
Conditions: hairless mice, effect of propylene glycol; cited from earlier work

For `CNCCC=C1c2ccccc2CCc2ccccc21` [Nortriptyline], the “absorption with propylene glycol” value is given as “enhances absorption”.
In the case of `CNCCCN1c2ccccc2CCc2ccccc21` [Desipramine], the “absorption with propylene glycol” value is given as “enhances absorption”.
